The text below walks through data of patent US9278950B2, “Bicyclic aromatic carboxamide compounds useful as Pim kinase inhibitors” (Incyte Corporation, priority 2013, dated 2016).

Common to all, as to assay type: biochemical
One test has as its target T1, Pim2 (Homo sapiens, UniProt Q9P1W9).
T1 construct: purchased Invitrogen PV3649
Put plainly: Pim-2 kinase assay (Pim enzyme assays, Example A). The following applies: 1 mM ATP; read-out: Pim2 IC50. As to the method: Pim-2 kinase assay—20 μL reactions were run in white 384 well polystyrene plates dotted with 0.8 μL compound/DMSO in the assay buffer (50 mM Tris, pH 7.5, 0.01% Tween-20, 5 mM mgCl2, 0.01% BSA, 5 mM DTT), containing 0.05 μM Fluorescein-labeled CREBtide peptide substrate (Invitrogen PV3508), 1 mM ATP, and 1 nM enzyme (Invitrogen PV3649) for 2 h at 25° C. Reactions were stopped by addition of 10 μL TR-FRET Dilution Buffer (Invitrogen PV3574) with 30 mM EDTA and 1.5 nM LanthaScreen Tb-CREB pSer133 antibody (Invitrogen PV3566). After 30 min. incubation at room temperature, plates were read on a PHERAstar FS plate reader (BMG Labtech).

Another test concerns the target T2, Pim-1 (Homo sapiens, UniProt P11309).
T2 construct: purchased Invitrogen PV3503
Put plainly: Pim-1 kinase assay (Pim enzyme assays, Example A). The following applies: 1 mM ATP; read-out: Pim1 IC50. How it is done:
(§1) Pim-1 and Pim-3 kinase assays-20 μL reactions were run in white 384 well polystyrene plates dotted with 0.8 μL compound/DMSO in the assay buffer (50 mM Tris, pH 7.5, 0.01% Tween-20, 5 mM mgCl2, 0.01% BSA, 5 mM DTT), containing 0.05 μM Biotin-labeled BAD peptide substrate (AnaSpec 62269), 1 mM ATP, and […] (Pim-1, Invitrogen PV3503) or […] (Pim-3, Millipore 14-738) enzyme for 1 h at 25° C. Reactions were stopped by addition of 10 μL STOP Buffer (150 mM Tris, pH=7.5, 150 mM NaCl, 75 mM EDTA, 0.01% Tween-20, 0.3% BSA,) supplemented with Phospho-Bad (Ser 12) Antibody (Cell Signaling 9291) diluted 666-fold, and Streptavidin donor beads (PerkinElmer 6760002) along with Protein-A acceptor beads (PerkinElmer 6760137) at 15 μg/mL each. Supplementation of the STOP buffer with beads and stopping the reactions were done under reduced light. Prior to the stopping reactions STOP buffer with beads was preincubated for 1 h in the dark at room temperature. After stopping the reactions, plates were incubated for 1 h in the dark at room temperature before reading on a PHERAstar FS plate reader (BMG Labtech) under reduced light.

A further test deals with T3, Pim-3 (Homo sapiens, UniProt Q86V86).
T3 construct: purchased Millipore 14-738
As to the kind of experiment: Pim-3 kinase assay (Pim enzyme assays, Example A). The following applies: 1 mM ATP; read-out: Pim3 IC50. As to the method: as §1

T2 sequence (P11309 whole entry): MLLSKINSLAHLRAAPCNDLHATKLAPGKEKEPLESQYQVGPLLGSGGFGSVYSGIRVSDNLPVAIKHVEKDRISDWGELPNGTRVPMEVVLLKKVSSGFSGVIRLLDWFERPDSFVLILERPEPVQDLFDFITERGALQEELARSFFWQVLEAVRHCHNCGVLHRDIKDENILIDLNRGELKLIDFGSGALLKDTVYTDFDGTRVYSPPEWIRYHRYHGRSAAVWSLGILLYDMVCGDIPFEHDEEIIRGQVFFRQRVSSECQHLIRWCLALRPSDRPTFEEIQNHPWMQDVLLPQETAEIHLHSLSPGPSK
T1 sequence (Q9P1W9 whole entry): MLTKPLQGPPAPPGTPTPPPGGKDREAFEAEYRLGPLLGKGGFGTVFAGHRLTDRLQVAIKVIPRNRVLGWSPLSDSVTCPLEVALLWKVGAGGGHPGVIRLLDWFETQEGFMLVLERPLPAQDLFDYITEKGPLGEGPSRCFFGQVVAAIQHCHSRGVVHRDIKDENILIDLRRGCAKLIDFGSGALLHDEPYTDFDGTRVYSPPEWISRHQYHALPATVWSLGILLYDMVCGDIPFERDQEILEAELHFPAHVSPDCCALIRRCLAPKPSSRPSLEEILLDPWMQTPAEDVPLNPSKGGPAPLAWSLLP

`C[C@@H]1C[C@H](N)CN(c2ccncc2NC(=O)c2nc3cc(C4CCN(C)CC4)ccc3cc2N)C1` [Example 43, 3-Amino-N-{4-[(3S,5R)-3-amino-5-methylpiperidin-1-yl]pyridin-3-yl}-7-(1-methylpiperidin-4-yl)quinoline-2-carboxamide]: the IC50 on Pim2, on Pim-1 and at Pim-3 was at most 100 nM in each case.
With `CN1CCC(c2ccc3cc(N)c(C(=O)Nc4cnccc4N4C[C@@H](N)C[C@@H](C(F)(F)F)C4)nc3c2)CC1` [Example 44, 3-Amino-N-{4-[(3S,5R)-3-amino-5-(trifluoromethyl)piperidin-1-yl]pyridin-3-yl}-7-(1-methylpiperidin-4-yl)quinoline-2-carboxamide], the concentration for half-maximal inhibition (IC50) on Pim2, on Pim-1 and on Pim-3 was at most 100 nM in each case.
On to `C[C@@H]1C[C@H](N)CN(c2ccncc2NC(=O)c2nc3cc(N4CCCCC4=O)ccc3cc2N)C1` [Example 45, 3-Amino-N-{4-[(3S,5R)-3-amino-5-methylpiperidin-1-yl]pyridin-3-yl}-7-(2-oxopiperidin-1-yl)quinoline-2-carboxamide], for which the IC50 on Pim2 is 100 to 1000 nM; on Pim-1, at most 100 nM; at Pim-3, at most 100 nM.
In the case of `C[C@@H]1C[C@H](N)CN(c2ccncc2NC(=O)c2nc3cc(N4CCN(C)C(=O)C4)ccc3cc2N)C1` [Example 46, 3-Amino-N-{4-[(3S,5R)-3-amino-5-methylpiperidin-1-yl]pyridin-3-yl}-7-(4-methyl-3-oxopiperazin-1-yl)quinoline-2-carboxamide], the figures for the IC50 at Pim2, at Pim-1 and at Pim-3 were 100 to 1000 nM, at most 100 nM and at most 100 nM, respectively.
For `C[C@@H]1C[C@H](N)CN(c2ccncc2NC(=O)c2nc3cc(N4CCNC(=O)C4)ccc3cc2N)C1` [Example 47, 3-Amino-N-{4-[(3S,5R)-3-amino-5-methylpiperidin-1-yl]pyridin-3-yl}-7-(3-oxopiperazin-1-yl)quinoline-2-carboxamide], the IC50 at Pim2 is 100 to 1000 nM; at Pim-1, at most 100 nM; on Pim-3, at most 100 nM.
`C[C@H]1CN(c2ccncc2NC(=O)c2nc3cc(N4CCN(C)C(=O)C4)ccc3cc2N)C[C@@H](N)[C@@H]1O` [Example 48, 3-Amino-N-{4-[(3R,4R,5S)-3-amino-4-hydroxy-5-methylpiperidin-1-yl]pyridin-3-yl}-7-(4-methyl-3-oxopiperazin-1-yl)quinoline-2-carboxamide]: the IC50 on Pim2, at Pim-1 and on Pim-3 was at most 100 nM throughout.
Turning to `C[C@H]1CN(c2ccncc2NC(=O)c2nc3cc(N4CCCCC4=O)ccc3cc2N)C[C@@H](N)[C@@H]1O` [Example 49, 3-Amino-N-{4-[(3R,4R,5S)-3-amino-4-hydroxy-5-methylpiperidin-1-yl]pyridin-3-yl}-7-(2-oxopiperidin-1-yl)quinoline-2-carboxamide], the IC50 was 100 to 1000 nM at Pim2, at most 100 nM on Pim-1 and at most 100 nM at Pim-3.
As for `C[C@@H]1C[C@H](N)CN(c2ccncc2NC(=O)c2nc3cc(N4CCOCC4=O)ccc3cc2N)C1` [Example 50, 3-Amino-N-{4-[(3S,5R)-3-amino-5-methylpiperidin-1-yl]pyridin-3-yl}-7-(3-oxomorpholin-4-yl)quinoline-2-carboxamide], the results for the IC50 on Pim2, on Pim-1 and on Pim-3 were 100 to 1000 nM, at most 100 nM and at most 100 nM, respectively.
As for `C[C@H]1CN(c2ccncc2NC(=O)c2nc3cc(N4CCOCC4=O)ccc3cc2N)C[C@@H](N)[C@@H]1O` [Example 51, 3-Amino-N-{4-[(3R,4R,5S)-3-amino-4-hydroxy-5-methylpiperidin-1-yl]pyridin-3-yl}-7-(3-oxomorpholin-4-yl)quinoline-2-carboxamide], the half-inhibitory concentration (IC50) at Pim2 was 1000 to 10000 nM; on Pim-1, at most 100 nM; at Pim-3 it was at most 100 nM.
As for `C[C@H]1CN(c2ccncc2NC(=O)c2nc3cc(N4CCN(C)C(=O)C4)ccc3cc2N)C[C@@H](N)[C@H]1n1ccnn1` [Example 52, 3-Amino-N-{4-[(3R,4S,5S)-3-amino-5-methyl-4-(1H-1,2,3-triazol-1-yl)piperidin-1-yl]pyridin-3-yl}-7-(4-methyl-3-oxopiperazin-1-yl)quinoline-2-carboxamide], the concentration for half-maximal inhibition (IC50) was above 2000 nM on Pim2, at most 100 nM at Pim-1 and at most 100 nM at Pim-3.
`C[C@H]1CN(c2ccncc2NC(=O)c2nc3cc(C4CCOCC4)ccc3cc2N)C[C@@H](N)[C@H]1n1ccnn1` [Example 53, 3-Amino-N-{4-[(3R,4S,5S)-3-amino-5-methyl-4-(1H-1,2,3-triazol-1-yl)piperidin-1-yl]pyridin-3-yl}-7-(tetrahydro-2H-pyran-4-yl)quinoline-2-carboxamide]: the IC50 is 1000 to 10000 nM on Pim2, at most 100 nM at Pim-1 and at most 100 nM at Pim-3.
Consider `C[C@H]1CN(c2ccncc2NC(=O)c2nc3cc(N4CCN(C)CC4)ccc3cc2N)C[C@@H](N)[C@H]1n1ccnn1` [Example 54, 3-Amino-N-{4-[(3R,4S,5S)-3-amino-5-methyl-4-(1H-1,2,3-triazol-1-yl)piperidin-1-yl]pyridin-3-yl}-7-(4-methylpiperazin-1-yl)quinoline-2-carboxamide], for which the concentration for half-maximal inhibition (IC50) on Pim2 was above 2000 nM; on Pim-1, at most 100 nM; at Pim-3 it was at most 100 nM.
As for `C[C@H]1CN(c2ccncc2NC(=O)c2nc3cc(N4CCOCC4)ccc3cc2N)C[C@@H](N)[C@H]1n1ccnn1` [Example 55, 3-Amino-N-{4-[(3R,4S,5S)-3-amino-5-methyl-4-(1H-1,2,3-triazol-1-yl)piperidin-1-yl]pyridin-3-yl}-7-morpholin-4-ylquinoline-2-carboxamide], the IC50 is above 2000 nM at Pim2, at most 100 nM on Pim-1 and at most 100 nM on Pim-3.
As for `C[C@H]1CN(c2ccncc2NC(=O)c2nc3cc(C4CCN(C)CC4)ccc3cc2N)C[C@@H](N)[C@H]1n1ccnn1` [Example 56, 3-Amino-N-{4-[(3R,4S,5S)-3-amino-5-methyl-4-(1H-1,2,3-triazol-1-yl)piperidin-1-yl]pyridin-3-yl}-7-(1-methylpiperidin-4-yl)quinoline-2-carboxamide], the IC50 at Pim2 was 1000 to 10000 nM; at Pim-1, at most 100 nM; at Pim-3, at most 100 nM.
`CCc1ccc2cc(N)c(C(=O)Nc3cnccc3N3C[C@@H](N)[C@@H](n4ccnn4)[C@@H](C)C3)nc2c1` [Example 57, 3-Amino-N-{4-[(3R,4S,5S)-3-amino-5-methyl-4-(1H-1,2,3-triazol-1-yl)piperidin-1-yl]pyridin-3-yl}-7-ethylquinoline-2-carboxamide]: the IC50 on Pim2 is 100 to 1000 nM; on Pim-1, at most 100 nM; on Pim-3, at most 100 nM.
Take `CCc1ccc2cc(N)c(C(=O)Nc3cnccc3N3C[C@@H](N)[C@@H](NC(=O)OC)[C@@H](C)C3)nc2c1` [Example 58, Methyl [(3R,4S,5S)-3-amino-1-(3-{[(3-amino-7-ethylquinolin-2-yl)carbonyl]amino}pyridin-4-yl)-5-methylpiperidin-4-yl]carbamate]: the IC50 on Pim2 is 100 to 1000 nM; at Pim-1 it was at most 100 nM; on Pim-3 it was at most 100 nM.
For the compound `COC(=O)N[C@@H]1[C@H](N)CN(c2ccncc2NC(=O)c2nc3cc(N4CCOCC4)ccc3cc2N)C[C@@H]1C` [Example 59, Methyl [(3R,4S,5S)-3-amino-1-(3-{[(3-amino-7-morpholin-4-ylquinolin-2-yl)carbonyl]amino}pyridin-4-yl)-5-methylpiperidin-4-yl]carbamate], the figures for the IC50 on Pim2, on Pim-1 and at Pim-3 were 1000 to 10000 nM, at most 100 nM and at most 100 nM, respectively.
As for `COC(=O)N[C@@H]1[C@H](N)CN(c2ccncc2NC(=O)c2nc3cc(N4CCN(C)CC4)ccc3cc2N)C[C@@H]1C` [Example 60, Methyl {(3R,4S,5S)-3-amino-1-[3-({[3-amino-7-(4-methylpiperazin-1-yl)quinolin-2-yl]carbonyl}amino)pyridin-4-yl]-5-methylpiperidin-4-yl}carbamate], the values for the IC50 at Pim2, on Pim-1 and on Pim-3 were 1000 to 10000 nM, at most 100 nM and at most 100 nM, respectively.
Consider `COC(=O)N[C@@H]1[C@H](N)CN(c2ccncc2NC(=O)c2nc3cc(C4CCOCC4)ccc3cc2N)C[C@@H]1C` [Example 61, Methyl {(3R,4S,5S)-3-amino-1-[3-({[3-amino-7-(tetrahydro-2H-pyran-4-yl)quinolin-2-yl]carbonyl}amino)pyridin-4-yl]-5-methylpiperidin-4-yl}carbamate], for which the figures for the IC50 at Pim2, on Pim-1 and on Pim-3 were 100 to 1000 nM, at most 100 nM and at most 100 nM, respectively.

The IC50 is the midpoint of a concentration-inhibition curve.
